Measurements reported in BindingDB's records for doi:10.1021/acs.jmedchem.5b01913 (Dalian University of Technology, 2016).

Tests used:
[1] = Inhibition of Bcl2 in human DMS53 cells assessed as growth inhibition
[2] = Inhibition of MDM2 in human HCT116 p53+/+ cells assessed as growth inhibition

IC50 [1]: 5 µM | IC50 [2]: 5 µM
SMILES: CC(C)Oc1ccc(C(=O)Nc2c(C(=O)O)nn(-c3ccc(Oc4ccccc4)cc3)c2-c2ccc(OC(C)C)cc2)cc1
